Experimental data from ChEMBL document CHEMBL3525981, “Metabolism and disposition of 14C-labeled peliglitazar in humans” (Drug Metab Dispos, 2011).

system: Homo sapiens; assay: Drug level in human assessed as retention time treated with 10 mg, po of [14C]peliglitazar by LC-MS and LC-MS/MS analysis; format: ADME, organism-based; details: not given

Row | Structure (SMILES) | Retention_time [min]
1 | Cc1oc(-c2ccccc2)nc1CC(=O)O | 18.5
2 | COc1ccc(OC(=O)N(CC(=O)O)[C@@H](C)c2ccc(O)cc2)cc1 | 21
3 | COc1ccc(OC(=O)N(CC(=O)O)[C@@H](C)c2ccc(OCCc3nc(-c4ccccc4)oc3CO)cc2)cc1 | 39.5
4 | COc1ccc(OC(=O)N(CC(=O)O)[C@@H](C)c2ccc(OCCc3nc(-c4ccc(O)cc4)oc3C)cc2)cc1 | 42.3
5 | COc1ccc(OC(=O)N(CC(=O)O)[C@@H](C)c2ccc(OCC(O)c3nc(-c4ccccc4)oc3C)cc2)cc1 (stereo not given in full) | 46.8
6 | C[C@@H](c1ccc(OCCc2nc(-c3ccccc3)oc2CO)cc1)N(CC(=O)O)C(=O)Oc1ccc(O)cc1 | 27.6
7 | Cc1oc(-c2ccccc2)nc1C(O)COc1ccc([C@H](C)N(CC(=O)O)C(=O)Oc2ccc(O)cc2)cc1 (stereo not given in full) | 32.1
8 | Cc1oc(-c2ccccc2)nc1CCOc1ccc([C@H](C)N(CC(=O)O[C@@H]2O[C@H](C(=O)O)[C@@H](O)[C@H](O)[C@H]2O)C(=O)Oc2ccc(O)cc2)cc1 | 32.2
9 | Cc1oc(-c2ccccc2)nc1CCOc1ccc([C@H](C)N(CC(=O)O)C(=O)Oc2ccc(O)cc2)cc1 | 48.4

system: Homo sapiens; assay: Drug metabolism in human assessed as retention time of parent compound at 10 mg, po by LC-MS and LC-MS/MS analysis; format: ADME, organism-based; details: in vivo

Row | Structure (SMILES) | Retention_time [min]
10 | COc1ccc(OC(=O)N(CC(=O)O)[14C@@H](C)c2ccc(O[14CH2]Cc3nc(-c4ccccc4)oc3C)cc2)cc1 | 65.5
